Measurements from patent US20240358693A1, “METHODS OF TREATING PAIN” (Aisa Pharma, Inc., priority 2023, published 2024).

Test system: participants with SSc-RP
Experiment: Scleroderma Health Assessment Questionnaire (SHAQ): disability indices and visual analog scales
Format: in vivo, human
Description: The standard, validated, patient reported outcome measures tool for SSc patients, the Scleroderma Health Assessment Questionnaire (SHAQ), will be used to assess the participant qualify of life. Details are attached in the Appendix. The participant quality of life will be scored, and a disability index calculated for each questionnaire completed by the patient at Screening and each in-clinic visit. The absolute change in participant quality of life from baseline to the end of each dosing period will be calculated similar to frequency data as before.
The SHAQ includes a Raynaud's VAS, which will be reported at screening and each in-clinic visit. The absolute change in Raynaud-VAS, assessed by the participants response to the SHAQ question ‘In the past 7 days, how much have your Raynaud's interfered with your daily activities?’ at baseline and the end of each dosing period will be calculated similar to frequency data as before.
The SHAQ is used to calculate a Disability Index to assess the participant qualify of life. The eight categories assessed by the Disability Index are 1) dressing and grooming, 2) arising, 3) eating, 4) walking, 5) hygiene, 6) reach, 7) grip, and 8) common daily activities. For each of these categories, patients report the amount of difficulty they have in performing two or three specific activities.
There are four possible responses for the Disability Index questions: • Without any difficulty=0 • With some difficulty=1 • With much difficulty=2 • Unable to do=3. • The highest score reported by the patient for any component question of the eight categories determines the score for that category. • If a component question is left blank or the response is too ambiguous to assign a score, then the score for that category is determined by the remaining completed question(s). • If all component questions are blank or if more than one answer is given, then follow up with the respondent is required. • If the respondent's mark is between the response columns, then move it to the closest one. If it's directly between the two, move it to the higher one.
Each of the disability items on the SHAQ has a companion aids/devices variable that is used to record what type(s) of assistance, if any, the participant uses for his/her usual activities. These variables (see below) are coded as follows: • 0=No assistance is needed. • 1=A special device is used by the patient in his/her usual activities. • 2=The patient usually needs help from another person. • 3=The patient usually needs BOTH a special device AND help from another person.
The scoring variables and scoring rules permit the computation of two disability indices, the Standard Disability Index and the Alternative Disability Index.
This question results in a new set of category scores that are computed by adjusting the score for each category, if necessary, based on the patient's use of an aid or device or assistance for that category. If either devices and/or help from another person are checked for a category, the score is set to “2”, unless the score is already “3” (i.e., scores of “0” or “1” are increased to “2”). For example, if the highest score for the dressing category is “1”, and the patient says they use a device for dressing, the computed category score would be “2”. The sum of the computed categories scores is then calculated and divided by the number of categories answered. This gives a score in the 0 to 3 range.
The aid and device variables are not used to calculate the alternative disability index; it is calculated by adding the scores for each of the categories and dividing by the number of categories answered. This gives a score in the 0 to 3 range.
The standard, validated, patient reported outcome measures tool for SSc patients, the SHAQ, was collected at the time points specified in the study schedules (FIG. 2 and FIGS. 4A and 4B) to assess the participant's quality of life. The SHAQ included a Raynaud's VAS that will also be reported separately.

[1] = Pooled Cilnidipine (N = 7), sensitivity analysis, Modified ITT, Part A
[2] = Pooled Cilnidipine (N = 8), Day 12, PP Population Part A, SSc patients
[3] = Pooled Cilnidipine (N = 8), PP Population Part A, SSc patients
[4] = Pooled Cilnidipine (n = 7), mITT population

COCCOC(=O)C1=C(C)NC(C)=C(C(=O)OC/C=C/c2ccccc2)C1c1cccc([N+](=O)[O-])c1 (stereo not shown) [Cilnidipine, cilnidipine]
SHAQ VAS Breathing Problems: Change from Baseline, Median [1]: 0.000 | SHAQ VAS Breathing Problems: Day 12, Mean [1]: 1.029 | SHAQ VAS Breathing Problems: Day 12, Median [1]: 0.000 | SHAQ VAS Breathing Problems: Percent Change from Baseline, Mean [1]: −8.17% | SHAQ VAS Breathing Problems: Percent Change from Baseline, Median [1]: −41.33% | SHAQ VAS Finger Ulcers: Baseline, Mean [1]: 1.171 | SHAQ VAS Finger Ulcers: Baseline, Median [1]: 0.300 | SHAQ VAS Finger Ulcers: Change from Baseline, Mean [1]: −0.643 | SHAQ VAS Finger Ulcers: Change from Baseline, Median [1]: 0.000 | SHAQ VAS Finger Ulcers: Day 12, Mean [1]: 0.529 | SHAQ VAS Finger Ulcers: Day 12, Median [1]: 0.000 | SHAQ VAS Finger Ulcers: Percent Change from Baseline, Mean [1]: −17.08% | SHAQ VAS Finger Ulcers: Percent Change from Baseline, Median [1]: −50.82% | SHAQ VAS Intestinal Problems: Baseline, Mean [1]: 2.057 | SHAQ VAS Intestinal Problems: Baseline, Median [1]: 1.000 | SHAQ VAS Intestinal Problems: Change from Baseline, Mean [1]: −0.943 | SHAQ VAS Intestinal Problems: Change from Baseline, Median [1]: 0.000 | SHAQ VAS Intestinal Problems: Day 12, Mean [1]: 1.114 | SHAQ VAS Intestinal Problems: Day 12, Median [1]: 0.600 | SHAQ VAS Intestinal Problems: Percent Change from Baseline, Mean [1]: −32.42% | SHAQ VAS Intestinal Problems: Percent Change from Baseline, Median [1]: −44.12% | SHAQ VAS Overall Disease Severity: Baseline, Mean [1]: 2.700 | SHAQ VAS Overall Disease Severity: Baseline, Median [1]: 2.900 | SHAQ VAS Overall Disease Severity: Change from Baseline, Mean [1]: −1.214 | SHAQ VAS Overall Disease Severity: Change from Baseline, Median [1]: −1.500 | SHAQ VAS Overall Disease Severity: Day 12, Mean [1]: 1.486 | SHAQ VAS Overall Disease Severity: Day 12, Median [1]: 1.200 | SHAQ VAS Overall Disease Severity: Percent Change from Baseline, Mean [1]: −59.80% | SHAQ VAS Overall Disease Severity: Percent Change from Baseline, Median [1]: −55.86% | SHAQ VAS Pain: Baseline, Mean [1]: 2.057 | SHAQ VAS Pain: Baseline, Median [1]: 1.700 | SHAQ VAS Pain: Change from Baseline, Mean [1]: −0.529 | SHAQ VAS Pain: Change from Baseline, Median [1]: −0.500 | SHAQ VAS Pain: Day 12, Mean [1]: 1.529 | SHAQ VAS Pain: Day 12, Median [1]: 1.000 | SHAQ VAS Pain: Percent Change from Baseline, Mean [1]: −31.22% | SHAQ VAS Pain: Percent Change from Baseline, Median [1]: −44.98% | SHAQ VAS Raynaud's: Baseline, Mean [1]: 1.900 | SHAQ VAS Raynaud's: Baseline, Median [1]: 1.100 | SHAQ VAS Raynaud's: Change from Baseline, Mean [1]: −0.357 | SHAQ VAS Raynaud's: Change from Baseline, Median [1]: −0.300 | SHAQ VAS Raynaud's: Day 12, Mean [1]: 1.543 | SHAQ VAS Raynaud's: Day 12, Median [1]: 1.100 | SHAQ VAS Raynaud's: Percent Change from Baseline, Mean [1]: −18.64% | SHAQ VAS Raynaud's: Percent Change from Baseline, Median [1]: −38.67% | SHAQ Standard Disability Index, Change from Baseline, Mean [2]: −0.031 | SHAQ Standard Disability Index, Change from Baseline, Median [2]: 0.000 | SHAQ Standard Disability Index, Percent Change from Baseline, Mean [2]: −16.00% | SHAQ Standard Disability Index, Percent Change from Baseline, Median [2]: 0.00% | SHAQ Standard Disability Index, In-Clinic Visit (Day 12), Mean [3]: 0.469 | SHAQ Standard Disability Index, In-Clinic Visit (Day 12), Median [3]: 0.188 | SHAQ % change VAS Raynauds [4]: −17% | SHAQ % change in Alternative Disability Index [4]: −13% | SHAQ % change in Pain [4]: −31% | SHAQ % change in Standard Disability Index [4]: −25% | SHAQ % change overall SSc Disease Severity [4]: −60% | SHAQ % improvement in Breathing (median) [4]: 41% | SHAQ % improvement in VAS Digital Ulcers [4]: 19% | SHAQ % Δ from baseline, VAS Breathing, mean (Pooled cilnidipine (4)): −8.2% | SHAQ % Δ from baseline, VAS Breathing, median (Pooled cilnidipine (4)): −41.3% | SHAQ % Δ from baseline, VAS Finger Ulcers, mean (Pooled cilnidipine (4)): −17.1%
